Tested on: HBV
Test: HBV-DNA Antiviral Assay Using HepG2.117 Cells (intracellular HBV DNA by qPCR)
Assay type: cell-based, hepatitis B virus (genotype D)
Conditions: Hepatitis B virus, HepG2.117
Summary of the method: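 Endpoint: qPCR copy number of intracellular HBV DNA after 3-day compound exposure, with inhibition set relative to the 2% DMSO control. The cells were doxycycline-free HepG2.117 carrying a Tet-off genotype D genome, dosed at nine 4-fold dilutions. A duplicate plate gave ATP-based viability (CC50).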

Row | Structure (SMILES) | EC50 [nM]
1 | COc1ccc(-n2c(C(=O)NCc3ccc(F)c(OC)c3)c3n(c2=O)CCN(C(=O)c2ccc(Cl)c(Cl)c2)C3)cc1 [Example 103, 7-(3,4-dichlorobenzoyl)-N-[(4-fluoro-3-methoxy-phenyl)methyl]-2-(4-methoxyphenyl)-3-oxo-6,8-dihydro-5H-imidazo[1,5-a]pyrazine-1-carboxamide] | 500 to 5000
2 | O=C(NCc1ccccc1)c1c2n(c(=O)n1-c1ccc3occc3c1)CCN(C(=O)c1ccc(Cl)c(Cl)c1)C2 [Example 120, 2-(benzofuran-5-yl)-N-benzyl-7-(3,4-dichlorobenzoyl)-3-oxo-6,8-dihydro-5H-imidazo[1,5-a]pyrazine-1-carboxamide] | 500 to 5000
3 | COc1ccc([C@H](C)NC(=O)c2c3n(c(=O)n2-c2ccc(OC4CC4)cc2)C[C@H](C)N(C(=O)c2ccc(Br)c(Cl)c2)C3)cc1 (mixture of isomers) [Example 436, (6SR)-7-(4-bromo-3-chloro-benzoyl)-2-[4-(cyclopropoxy)phenyl]-N-[(1S)-1-(4-methoxyphenyl)ethyl]-6-methyl-3-oxo-6,8-dihydro-5H-imidazo[1,5-a]pyrazine-1-carboxamide] | < 100
4 | COc1ccc(CN2C/C=C\Cn3c(c4n(c3=O)CCN(C(=O)c3ccc(Br)c(Cl)c3)C4)C2=O)cc1 [Example 132, (11Z)-4-(4-bromo-3-chloro-benzoyl)-14-[(4-methoxyphenyl)methyl]-4,7,9,14-tetrazatricyclo[7.6.0.0^2,7]pentadeca-1,11-diene-8.15-dione] | 100 to 500
5 | CC(C)Oc1ccc(-n2c(C(=O)NC(C)c3ccccc3)c3n(c2=O)CCN(C(=O)c2ccc(Br)c(Cl)c2)C3)cc1 (racemic) [Example 118, 7-(4-bromo-3-chloro-benzoyl)-2-(4-isopropoxyphenyl)-3-oxo-N-[rac-(1R)-1-phenylethyl]-6,8-dihydro-5H-imidazo[1,5-a]pyrazine-1-carboxamide] | 100 to 500
6 | O=C(NCc1ccccc1-n1cccn1)c1c2n(c(=O)n1-c1ccc(OCC(F)(F)F)cc1)CCN(C(=O)c1ccc(Br)c(Cl)c1)C2 [Example 231, 7-(4-bromo-3-chloro-benzoyl)-3-oxo-N[(2-pyrazol-1-ylphenyl)methyl]-2-[4-(2,2,2-trifluoroethoxy)phenyl]-6,8-dihydro-5H-imidazo[1,5-a]pyrazine-1-carboxamide] | < 100
7 | COc1ccc(-n2c(C(=O)NCc3cnccn3)c3n(c2=O)CCN(C(=O)c2ccc(Br)c(Cl)c2)C3)cc1 [Example 171, 7-(4-bromo-3-chloro-benzoyl)-2-(4-methoxyphenyl)-3-oxo-N-(pyrazin-2-ylmethyl)-6,8-dihydro-5H-imidazo[1,5-a]pyrazine-1-carboxamide] | > 5000
8 | CCOC(=O)Cc1ccc(CNC(=O)c2c3n(c(=O)n2-c2ccc(OC)cc2)CCN(C(=O)c2ccc(Br)c(Cl)c2)C3)cc1 [Example 196, ethyl 2-[4-[[[7-(4-bromo-3-chloro-benzoyl)-2-(4-methoxyphenyl)-3-oxo-6,8-dihydro-5H-imidazo[1,5-a]pyrazine-1-carbonyl]amino]methyl]phenyl]acetate] | > 5000
9 | C[C@@H](NC(=O)c1c2n(c(=O)n1-c1ccc(OC3CC3)cc1)CCN(C(=O)c1ccc(Br)c(Cl)c1)C2)c1ccc(OCC(N)=O)cc1F (stereo in doubt) [Example 316, 7-(4-bromo-3-chloro-benzoyl)-2-[4-(cyclopropoxy)phenyl]-3-oxo-N-[rac-(1S)-1-[4-(2-amino-2-oxo-ethoxy)-2-fluoro-phenyl]ethyl]-6,8-dihydro-5H-imidazo[1,5-a]pyrazine-1-carboxamide] | < 100
10 | O=C(NCc1ccccc1-c1cocn1)c1c2n(c(=O)n1-c1ccc(OCC(F)(F)F)cc1)CCN(C(=O)c1ccc(Br)c(Cl)c1)C2 [Example 386, 7-(4-bromo-3-chloro-benzoyl)-N-[(2-oxazol-4-ylphenyl)methyl]-3-oxo-2-[4-(2,2,2-trifluoroethoxy)phenyl]-6,8-dihydro-5H-imidazo[1,5-a]pyrazine-1-carboxamide] | 100 to 500
11 | COc1ccc(-n2c(C(=O)NCc3ccccc3)c3n(c2=O)CCN(C(=O)c2ccc(Cl)c(Cl)c2)C3)c(F)c1 [Example 79, N-benzyl-7-(3,4-dichlorobenzoyl)-2-(2-fluoro-4-methoxy-phenyl)-3-oxo-6,8-dihydro-5H-imidazo[1,5-a]pyrazine-1-carboxamide] | 500 to 5000
12 | COc1cccc(CNC(=O)c2c3n(c(=O)n2-c2ccccc2)CCN(C(=O)c2ccc(Br)c(Cl)c2)C3)c1 [Example 33, 7-(4-bromo-3-chloro-benzoyl)-N-[(3-methoxyphenyl)methyl]-3-oxo-2-phenyl-6,8-dihydro-5H-imidazo[1,5-a]pyrazine-1-carboxamide] | 100 to 500
13 | C[C@@H](NC(=O)c1c2n(c(=O)n1-c1ccc(OC3CC3)cc1)CCN(C(=O)c1ccc(Br)c(Cl)c1)C2)c1ccc(C#N)cc1F (racemic) [Example 341, 7-(4-bromo-3-chloro-benzoyl)-2-[4-(cyclopropoxy)phenyl]-3-oxo-N-[rac-(1R)-1-(4-cyano-2-fluoro-phenyl)ethyl]-6,8-dihydro-5H-imidazo[1,5-a]pyrazine-1-carboxamide] | 500 to 5000
14 | COc1ccc(-n2c(C(=O)NCc3cccc(C(N)=O)c3)c3n(c2=O)CCN(C(=O)c2ccc(Cl)c(Cl)c2)C3)cc1 [Example 126, N-[(3-carbamoylphenyl)methyl]-7-(3,4-dichlorobenzoyl)-2-(4-methoxyphenyl)-3-oxo-6,8-dihydro-5H-imidazo[1,5-a]pyrazine-1-carboxamide] | > 5000
15 | O=C(NCc1c(F)ccc2nccnc12)c1c2n(c(=O)n1-c1ccc(OC3CC3)cc1)CCN(C(=O)c1ccc(Br)c(Cl)c1)C2 [Example 461, 7-(4-bromo-3-chloro-benozyl)-2-[4-(cyclopropoxy)phenyl]-N-[(6-fluoroquinoxalin-5-yl)methyl]-3-oxo-6,8-dihydro-5H-imidazo[1,5-a]pyrazine-1-carboxamide] | < 100
16 | COc1ccc(-n2c(C(=O)NCc3ccncc3)c3n(c2=O)CCN(C(=O)c2ccc(Cl)c(Cl)c2)C3)cc1 [Example 57, 7-(3,4-dichlorobenzoyl)-2-(4-methoxyphenyl)-3-oxo-N-(4-pyridylmethyl)-6,8-dihydro-5H-imidazo[1,5-a]pyrazine-1-carboxamide] | > 5000
17 | C[C@H](NC(=O)c1c2n(c(=O)n1-c1ccc(OCC(F)(F)F)cc1)CCN(C(=O)c1ccc(Br)c(Cl)c1)C2)c1ccc(OCC(N)=O)cc1F (stereo in doubt) [Example 320, 7-(4-bromo-3-chloro-benzoyl)-3-oxo-N-[rac-(1S)-1-[4-(2-amino-2-oxo-ethoxy)-2-fluoro-phenyl]ethyl]-2-[4-(2,2,2-trifluoroethoxy)phenyl]-6,8-dihydro-5H-imidazo[1,5-a]pyrazine-1-carboxamide] | 100 to 500
18 | COc1ccc(CNC(=O)c2c3n(c(=O)n2-c2ccc(OCC(F)(F)F)cc2)CCN(C(=O)c2ccc(Br)c(Cl)c2)C3)c(-n2cccn2)c1 [Example 258, 7-(4-bromo-3-chloro-benzoyl)-N-[(4-methoxy-2-pyrazol-1-yl-phenyl)methyl]-3-oxo-2-[4-(2,2,2-trifluroethoxy)phenyl]-6,8-dihydro-5H-imidazo[1,5-a]pyrazine-1-carboxamide] | < 100
19 | C[C@@H](Oc1ccc(CNC(=O)c2c3n(c(=O)n2-c2ccc(OC4CC4)cc2)CCN(C(=O)c2ccc(Br)c(Cl)c2)C3)c(F)c1)C(N)=O (racemic) [Example 406, 7-(4-bromo-3-chloro-benzoyl)-2-[4-(cyclopropoxy)phenyl]-N-[[2-fluoro-4-[rac-(1R)-2-amino-1-methyl-2-oxo-ethoxy]phenyl]methyl]-3-oxo-6,8-dihydro-5H-imidazo[1,5-a]pyrazine-1-carboxamide] | 100 to 500
20 | C[C@@H]1Cn2c(c(C(=O)NCc3ccccc3-n3cc(F)cn3)n(-c3ccc(OC4CC4)cc3)c2=O)CN1C(=O)c1ccc(Br)c(Cl)c1 (racemic) [Example 441, rac-(6R)-7-(4-bromo-3-chloro-benzoyl)-2-[4-(cyclopropxy)phenyl]-N-[[2-(4-fluoropyrazol-1-yl)phenyl]methyl]-6-methyl-3-oxo-6,8-dihydro-5H-imidazo[1,5-a]pyrazine-1-carboxamide] | 100 to 500
21 | C[C@@H](NC(=O)c1c2n(c(=O)n1-c1ccc(OC3CC3)cc1)CCN(C(=O)c1ccc(Br)c(Cl)c1)C2)c1ccc(OC(C)(C)C(N)=O)cc1F (stereo in doubt) [Example 339, 7-(4-bromo-3-chloro-benzoyl)-2-[4-(cyclopropoxy)phenyl]-3-oxo-N-[rac-(1R)-1-[4-(2-amino-1,1-dimethyl-2-oxo-ethoxy)-2-fluoro-phenyl]ethyl]-6,8-dihydro-5H-imidazo[1,5-a]pyrazine-1-carboxamide] | 100 to 500
22 | O=C(NCc1ccccc1-c1cocn1)c1c2n(c(=O)n1-c1ccc(OC3CC3)cc1)CCN(C(=O)c1ccc(Br)c(Cl)c1)C2 [Example 398, 7-(4-bromo-3-chloro-benzoyl)-2-[4-(cyclopropxy)phenyl]-N-[(2-oxazol-4-ylphenyl)methyl]-3-oxo-6,8-dihydro-5H-imidazo[1,5-a]pyrazine-1-carboxamide] | < 100
23 | CC(C)Oc1ccc(-n2c(C(=O)NCc3ccc(C(C)(C)O)cc3)c3n(c2=O)CCN(C(=O)c2ccc(Br)c(Cl)c2)C3)cc1 [Example 407, 7-(4-bromo-3-chloro-benzoyl)-N-[[4-(1-hydroxy-1-methyl-ethyl)phenyl]methyl]-2-(4-isopropoxyphenyl)-3-oxo-6,8-dihydro-5H-imidazo[1,5-a]pyrazine-1-carboxamide] | < 100
24 | COc1ccc([C@@H](C)NC(=O)c2c3n(c(=O)n2-c2ccc(OC)cc2)CCN(C(=O)c2ccc(Br)c(Cl)c2)C3)cc1 (stereo in doubt) [Example 72, 7-(4-bromo-3-chloro-benzoyl)-2-(4-methoxyphenyl)-3-oxo-N-[rac-(1R)-1-(4-methoxyphenyl)ethyl]-6,8-dihydro-5H-imidazo[1,5-a]pyrazine-1-carboxamide] | 500 to 5000

Reference: patent US11591341B2 (ALIGOS THERAPEUTICS, INC., priority 2019, dated 2023)
